14 compounds from ChEMBL document CHEMBL3352102, “Synthesis and bioevaluation of 2-phenyl-4-methyl-1,3-selenazole-5-carboxylic acids as potent xanthine oxidase inhibitors” (Eur J Med Chem, 2014) can be followed below.

The target of series [1] is T1, Xanthine dehydrogenase/oxidase (Bos taurus, UniProt P80457). The series is described as follows: Inhibition of bovine xanthine oxidase assessed as inhibition of uric acid formation after 30 mins by spectrophotometry.
Series [2] has as its target T1, Xanthine dehydrogenase/oxidase. The series can be described thus: Mixed-type inhibition of bovine xanthine oxidase assessed as inhibition of uric acid formation by Lineweaver-Burk plot.
Series [3] shares this target. The series can be described thus: Mixed-type inhibition of oxidized form of bovine xanthine oxidase assessed as inhibition of uric acid formation by Lineweaver-Burk plot. The note with it: cattle.
Series [4] shares this target. The series can be described thus: Mixed-type inhibition of reduced form of bovine xanthine oxidase assessed as inhibition of uric acid formation by Lineweaver-Burk plot. The note with it: cattle.
The target is the same in series [5]. The series can be described thus: Mixed-type inhibition of bovine xanthine oxidase assessed as inhibition of uric acid formation by secondary Lineweaver-Burk plot.
The target is the same in series [6]. The series can be described thus: Inhibition of bovine xanthine oxidase assessed as inhibition of uric acid formation at 10000 nM after 30 mins by spectrophotometry. To be noted: cattle, 0.5 h.

T1 sequence (P80457 whole entry): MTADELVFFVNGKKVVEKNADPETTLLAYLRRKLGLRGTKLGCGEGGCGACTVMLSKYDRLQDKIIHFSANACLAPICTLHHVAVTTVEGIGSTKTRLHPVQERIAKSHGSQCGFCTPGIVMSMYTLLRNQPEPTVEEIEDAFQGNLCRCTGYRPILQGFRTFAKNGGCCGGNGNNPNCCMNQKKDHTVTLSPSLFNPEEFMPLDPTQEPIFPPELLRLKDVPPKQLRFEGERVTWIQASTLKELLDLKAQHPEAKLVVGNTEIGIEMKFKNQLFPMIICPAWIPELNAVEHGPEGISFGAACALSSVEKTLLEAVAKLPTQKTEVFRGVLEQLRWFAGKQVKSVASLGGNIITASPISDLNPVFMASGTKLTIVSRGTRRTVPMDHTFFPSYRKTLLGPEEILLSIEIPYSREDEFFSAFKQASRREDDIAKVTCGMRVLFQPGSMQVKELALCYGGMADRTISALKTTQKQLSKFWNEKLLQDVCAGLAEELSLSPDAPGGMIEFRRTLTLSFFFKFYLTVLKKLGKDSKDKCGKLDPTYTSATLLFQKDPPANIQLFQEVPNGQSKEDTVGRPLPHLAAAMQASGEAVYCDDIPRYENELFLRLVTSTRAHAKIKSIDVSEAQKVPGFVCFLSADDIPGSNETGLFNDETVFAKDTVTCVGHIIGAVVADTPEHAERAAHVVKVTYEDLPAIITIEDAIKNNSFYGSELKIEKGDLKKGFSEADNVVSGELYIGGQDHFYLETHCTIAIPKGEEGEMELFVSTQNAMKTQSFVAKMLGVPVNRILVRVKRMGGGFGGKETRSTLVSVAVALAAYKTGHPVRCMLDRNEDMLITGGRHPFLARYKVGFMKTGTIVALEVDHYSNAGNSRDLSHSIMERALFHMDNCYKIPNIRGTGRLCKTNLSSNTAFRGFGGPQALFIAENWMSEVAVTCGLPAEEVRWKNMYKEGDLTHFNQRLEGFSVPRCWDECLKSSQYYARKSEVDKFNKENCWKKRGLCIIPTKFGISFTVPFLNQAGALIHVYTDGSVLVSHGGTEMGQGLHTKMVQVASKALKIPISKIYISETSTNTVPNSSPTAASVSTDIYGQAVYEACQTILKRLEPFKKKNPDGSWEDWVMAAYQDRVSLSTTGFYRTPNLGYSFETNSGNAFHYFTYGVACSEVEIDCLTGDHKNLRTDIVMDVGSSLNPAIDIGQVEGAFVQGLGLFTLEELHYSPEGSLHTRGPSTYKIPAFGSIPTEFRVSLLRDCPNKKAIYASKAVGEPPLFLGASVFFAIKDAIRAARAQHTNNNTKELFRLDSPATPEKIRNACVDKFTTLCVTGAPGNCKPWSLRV

For the compound `CCOc1ccc(-c2nc(C)c(C(=O)O)[se]2)cc1[N+](=O)[O-]`, in series [1], the IC50 came to 82.5 nM.
On the same count and under the same terms, the value for `Cc1nc(-c2ccc(OCCC(C)C)c([N+](=O)[O-])c2)[se]c1C(=O)O` was 65.6 nM; that for `Cc1nc(-c2ccc(OCC(C)C)c([N+](=O)[O-])c2)[se]c1C(=O)O` was 33.7 nM.
In the case of `C=CCOc1ccc(-c2nc(C)c(C(=O)O)[se]2)cc1[N+](=O)[O-]`, the IC50 in series [1] came out at 16.1 nM.
Same read-out and setting: the figure for `CCCCCOc1ccc(-c2nc(C)c(C(=O)O)[se]2)cc1C#N` is 45.6 nM; for `COc1ccc(-c2nc(C)c(C(=O)O)[se]2)cc1C#N` it is 30.6 nM; for `CCC(C)Oc1ccc(-c2nc(C)c(C(=O)O)[se]2)cc1C#N` (stereo not drawn) it is 10.4 nM.
In the case of `C=CCOc1ccc(-c2nc(C)c(C(=O)O)[se]2)cc1C#N`, the results for the Ki in series [2] and in series [5] were 0.9 nM and 2.3 nM, respectively. In addition, the “inhibition (INH)” value in series [3] and in series [4] was “Active” throughout. Besides, the half-inhibitory concentration (IC50) in series [1] turned out to be 5.5 nM.
For `C=CCOc1ccc(-c2nc(C)c(C(=O)OCC)[se]2)cc1C#N`, the inhibition at 10 µM in series [6] is less than 50%.
For the compound `CCCCOc1ccc(-c2nc(C)c(C(=O)O)[se]2)cc1C#N`, the half-inhibitory concentration (IC50) in series [1] came out at 13.2 nM.
On to `C#CCOc1ccc(-c2nc(C)c(C(=O)O)[se]2)cc1C#N`, for which the IC50 in series [1] stood at 53.8 nM.
On the same count and under the same terms, the value for `CCCCOc1ccc(-c2nc(C)c(C(=O)O)[se]2)cc1[N+](=O)[O-]` was 49.2 nM; that for `CCCOc1ccc(-c2nc(C)c(C(=O)O)[se]2)cc1C#N` was 16.2 nM; that for `Cc1nc(-c2ccc(OCc3ccccc3)c([N+](=O)[O-])c2)[se]c1C(=O)O` was 40.3 nM.

For orientation: IC50 means the concentration at which inhibition is half-maximal. The term Ki denotes the dissociation constant of the complex between target and ligand, obtained from inhibition or displacement. By inhibition is commonly meant the share of the control response that was lost under treatment.
